Measured values as given in US20130261986A1, “METHOD FOR DETERMINING LIPOPHILICITY” (ASTELLAS PHARMA INC., priority 2010, published 2013).

Legend:
[1] = Lipophilicity (logD7.4) determination according to the present invention, two 1-octanol/phosphate buffer solvent systems in 96 deep well plate, LC/MS; format: physicochemical; details: 1-octanol:phosphate buffer pH 7.4 at 5:95 and 50:50, 25° C., 3 hours shaking; for logD: read-out: LogD Inventive determination method (Example)
Protocol: Thirty-eight test compounds were determined for logD7.4 according to the present invention. The solution amount per well was set to 1 mL, and 1-octanol was used as a hydrophobic solvent and a phosphate buffer solution buffered at pH 7.4 as a hydrophilic solvent. The amounts of the test substance to be added to the first and second solvent systems, respectively, were adjusted to be equal (X=Y in Equation I). […] Following the above-mentioned conditions, X=Y, a=5, b=95, and c=d=50 were substituted into Equation I to obtain the following quadratic equation (Equation II). As described below, once the test substance was determined, the value of C2/C1 could be determined on the basis of the peak area values and dilution ratios. The resulting value was substituted into Equation II to determine the distribution ratio D, and the common logarithm of this ratio was obtained to thereby compute logD7.4.
Dispensing, shaking, dilution and other steps were automated by a dispensing robot (Hamilton; MicroLabSTARlet), and transfer of plates between systems and some other tasks were performed manually. The specific test procedure is as follows.
Dulbecco's reagent (for 1 L of Sigma's PBS solution; containing 8 g of sodium chloride, 1.15 g of anhydrous sodium monohydrogen phosphate, 0.2 g of potassium chloride, and 0.2 g of anhydrous potassium dihydrogen phosphate) was diluted to give a volume of 1 L, stirring was performed, and insoluble matters were filtered off. The pH of the solution was measured and adjusted to pH 7.4 with 1N HCl.
A separating funnel was charged with a sufficient amount of each of 1-octanol (Kanto Chemical; for distribution coefficient determination) and the phosphate buffer solution prepared in (1), they were mixed well, and the mixture was allowed to stand overnight at room temperature. The upper and lower phases were recovered separately to obtain 1-octanol saturated with the phosphate buffer solution (saturated 1-octanol) and the phosphate buffer solution saturated with 1-octanol (saturated phosphate buffer solution). The resulting solutions were stored at room temperature.
A test compound was added to DMSO to prepare a 10 mM solution.
(1) Ten microliters of the 10 mM test compound solution in DMSO and then 490 μL of saturated 1-octanol were dispensed into a 96 deep well plate. Stirring by suction and ejection was repeated 10 times to prepare a standard octanol solution of the test compound.
(2) Fifty microliters of the standard octanol solution was dispensed into each of two wells; thereafter, 950 μL of the saturated phosphate buffer solution was dispensed into the first well (hydrophobic solvent:hydrophilic solvent=5:95), and 500 μL of the saturated phosphate buffer solution and 450 μL of saturated 1-octanol were dispensed into the second well (hydrophobic solvent:hydrophilic solvent=50:50).
(3) A pressure curable sealant was applied to the multiwell plate, and then the plate was shaken on a shaker at 25° C. for 3 hours. After the shaking, centrifugation was performed at 3000 rpm for 5 minutes.
(4) The lower phase (aqueous phase) was drawn from the first well and diluted 10-fold with methanol to thereby prepare a sample. From the second well, the upper phase (1-octanol phase) was drawn and diluted 10-fold and 50-fold with methanol to thereby prepare two additional samples.
With these 4 samples placed on an LC/MS auto sampler, determination was performed automatically.
(3) The aqueous solution of 0.1% formic acid (solution A) and the acetonitrile solution of 0.1% formic acid (solution B) were used as a HPLC mobile phase.
(4) HPLC was performed using Waters Acquity with a binary pump. The column stationary phase used was a reversed-phase column having octadecyl groups (Acquity BEH C18, 1.7 μm, 2.0×30 mm). The column temperature was set to 50° C.
(5) MS was performed using Waters ZQ or SQD. Data was acquired with the detection mode being set to ESI^+ and the type of ion to be detected being set to [M+H]^+.

[2] = Lipophilicity determination by a shake-flask method (Comparative Example), 1-octanol/phosphate buffer pH 7.4, LC/MS; format: physicochemical; details: 1-octanol / phosphate buffer solution pH 7.4, shaken 10 minutes
[3] = cited from earlier work

Row | logD [1] | logD [2] | SMILES | LogD Literature value [3] | LogD Inventive determination method (Example) [1]
1 | 0.8 | 0.8 | CCOc1ccccc1OCCN[C@H](C)Cc1ccc(OC)c(S(N)(=O)=O)c1 [Tamsulosin] | – | –
2 | 3.2 | 3 | CCc1ccc(CCOc2ccc(CC3SC(=O)NC3=O)cc2)nc1 (stereo not drawn) [Pioglitazone] | – | –
3 | 3.6 | 3.8 | OCCN1CCN(CCCN2c3ccccc3Sc3ccc(Cl)cc32)CC1 [Perphenazine] | – | –
4 | 0 | -0.3 | CCCN(CCC)S(=O)(=O)c1ccc(C(=O)O)cc1 [Probenecid] | – | –

Further lines, the compound ahead of its results:

Row | SMILES | logD [1] | logD [2] | LogD Literature value [3] | LogD Inventive determination method (Example) [1]
5 | NC(=O)N1c2ccccc2C=Cc2ccccc21 [Carbamazepine] | 2 | 1.8 | 1.5 | –
6 | CC(CCc1ccccc1)NCC(O)c1ccc(O)c(C(N)=O)c1 (stereo not drawn) [Labetalol] | 0.9 | 1 | – | –
7 | Cc1ccc(-c2cc(C(F)(F)F)nn2-c2ccc(S(N)(=O)=O)cc2)cc1 [Celecoxib] | 4.5 | 4.3 | – | –
8 | COc1ccc2c(c1)c(CC(=O)O)c(C)n2C(=O)c1ccc(Cl)cc1 [Indomethacin] | – | 1.2 | 0.9 | 1.1
